pEC50, pIC50: −log10 of the molar value.
Legend:
[1] = target: T1, SARS-CoV-2 nsp14 (Severe acute respiratory syndrome coronavirus 2, UniProt P0DTD1); assay: Nsp14 RapidFire MS high-throughput screening assay; assay type: biochemical
[2] = target: nsp14 N7-MTase; settings: read-out: IC50 nsp14 N7-MTase activity; cited from earlier work
[3] = tested on: SAR-CoV; settings: cited from earlier work
[4] = humans; with minimal gastrointestinal side effects; cited from earlier work
[5] = hydrolysis to the active metabolite tizoxanide; cited from earlier work
[6] = tested on: SARS-CoV-2; settings: read-out: EC50 blocking SARS-CoV-2 in vitro infections; cited from earlier work
[7] = target: human homolog RNA RNMT (RNMT:RAM) (Homo sapiens, UniProt O43148); assay: RNMT assay under similar conditions to the nsp14 RapidFire assay; assay type: biochemical
[8] = target: T1, SARS-CoV-2 nsp14; assay: biochemical; assay type: biochemical

Sequence of human homolog RNA RNMT (RNMT:RAM) (O43148 whole entry): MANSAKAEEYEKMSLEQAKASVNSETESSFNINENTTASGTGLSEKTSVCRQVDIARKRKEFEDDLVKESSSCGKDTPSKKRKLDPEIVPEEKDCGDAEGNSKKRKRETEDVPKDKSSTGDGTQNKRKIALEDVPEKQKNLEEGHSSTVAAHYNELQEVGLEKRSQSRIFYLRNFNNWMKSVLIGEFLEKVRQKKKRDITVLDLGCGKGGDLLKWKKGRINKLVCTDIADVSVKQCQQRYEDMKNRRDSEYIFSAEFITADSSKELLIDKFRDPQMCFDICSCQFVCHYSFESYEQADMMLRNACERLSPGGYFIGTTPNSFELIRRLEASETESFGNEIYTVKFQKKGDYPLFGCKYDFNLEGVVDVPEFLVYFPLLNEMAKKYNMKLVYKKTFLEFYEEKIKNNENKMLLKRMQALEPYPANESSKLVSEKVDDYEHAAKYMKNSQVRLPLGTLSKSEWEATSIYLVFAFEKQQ
Sequence of human homolog RNA RNMT (RNMT:RAM) (Q9BTL3 1-90 partner limits assumed): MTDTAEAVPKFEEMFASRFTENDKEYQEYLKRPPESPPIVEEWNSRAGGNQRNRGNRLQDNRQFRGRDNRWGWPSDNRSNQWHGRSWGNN

**Q.** Which “percentage effect on nsp14 activity” value ([1]; single concentration of 10 µM) does the source give for `O=C1C=CC(=O)N1c1cccc(F)c1` [N-(3-fluorophenyl)maleimide] here?
**A.** greater than 50%

**Q.** With `Nc1ncnc2c1ncn2[C@@H]1O[C@H](CSCC[C@H](N)C(=O)O)[C@@H](O)[C@H]1O` [S-adenosyl-L-homocysteine] as the compound, how does the pIC50 [2] read?
**A.** 4.80

**Q.** Which “effect on SAR-CoV replication in infected cells” value [3] does the source give for `O=C(O)C1=CC(=C(c2ccc(O)c(C(=O)O)c2)c2ccc(O)c(C(=O)O)c2)C=CC1=O` [aurintricarboxylic acid] here?
**A.** limit SAR-CoV replication in infected cells

**Q.** And the pIC50 [2]?
**A.** 5.19

**Q.** With `O=c1c(O)c(-c2ccc(O)cc2)oc2cc(O)cc(O)c12` [kaempferol] as the compound, how does the pIC50 [1] read?
**A.** 4.55

**Q.** Which results are given for `CC(=O)Oc1ccccc1C(=O)Nc1ncc([N+](=O)[O-])s1` [nitazoxanide]?
**A.** tolerated single dose [4]: up to 4 g; metabolic fate following oral administration [5]: rapidly hydrolyzed; pEC50 [6]: 5.67; pIC50 [7]: < 4.00; pIC50 [8]: 3.88; inhibition of N7-guanosine cap methylation [8]: Forty-nine; shift in activity between cap MTase assay and primary biochemical assay ([8]; orthogonal versus RapidFire assay): 10 fold; Emax at 100 µM ([1]; read-out: maximal effect, dose response, top concentration 100 µM): 89.7%

**Q.** With `O=C(Nc1ncc([N+](=O)[O-])s1)c1ccccc1O` [tizoxanide] as the compound, how does the pIC50 [1] read?
**A.** 4.26

— publication PMC7967019 (Slas Discovery, 2022)
